Laboratory results from patent publication US20220193445A1, “PHOTOERADICATION OF MICROORGANISMS WITH PULSED PURPLE OR BLUE LIGHT” (SAN DIEGO STATE UNIVERSITY RESEARCH FOUNDATION, priority 2016, published 2022).
“And” between values parts separate entries of the source, which are not always exact repeats. Equal entries are not always repeated.

Tests used:
[1] = tested on: GBS wild type strain COH1; experiment: GBS survival with porphyrin supplementation, with or without pulsed 450 nm light (Study 1, no incubation); type: cell-based, Group B Streptococcus (GBS)
Method: GBS wild type strain COH1 was added to 3 mL of Todd Hewitt broth and grown aerobically overnight at 37° C. From the overnight cultures, 500 uL of GBS was added to fresh Todd Hewitt broth and grown logarithmically at 37° C. until reaching a concentration of 10^8 CFU/mL. The culture was then centrifuged at 1300 rpm for three minutes, the supernatant was removed and discarded, and 1 mL of fresh Todd Hewitt broth was added. Serial dilutions of NaCl were made to obtain a suspension of GBS diluted to a concentration of 1×10^4 CFU/mL. The GBS were streaked onto Todd Hewitt agar plates both with and without the addition of diluted porphyrins (different concentrations of PPIX or CP III).
(§1) The lighted substrate was set to operate in 33% DF pulsed mode and driven with a constant current source. The average irradiance was 3 mW/cm^2. The pulse duration was 10 microseconds with an off time of 20 microseconds, and a pulse repetition rate of 33 kHz. The plates subject to light treatment were irradiated three times at […] with a radiant exposure of 7.56 J/cm^2 during each irradiation session (i.e., each irradiation session was 42 minutes with an incubation period there between of 30 minutes).
(§2) After irradiation protocols were completed, the plates were placed upside down in the anaerobic chamber and incubated at 37° C. for 24 hours. The plates were photographed, colonies counted and statistics of percent survival recorded.

[2] = tested on: GBS wild type strain COH1; experiment: GBS survival with porphyrin supplementation and 30 min incubation (optional wash), with or without pulsed 450 nm light (Study 2); type: cell-based, Group B Streptococcus (GBS)
Method: GBS wild type strain COH1 was added to 3 mL of Todd Hewitt broth and grown aerobically overnight at 37° C. From the overnight cultures, 500 uL of GBS was added to fresh Todd Hewitt broth and grown logarithmically at 37° C. until reaching a concentration of 10^8 CFU/mL. The culture was then centrifuged at 1300 rpm for three minutes, the supernatant was removed and discarded, and 1 mL of fresh Todd Hewitt broth was added.
The culture was then split into three Eppendorf tubes—a first tube for GBS and second and third tubes for GBS with diluted porphyrins used for incubation. Diluted porphyrins (PPIX or CP III) were added into the second and third tubes and incubated for 30 minutes at 37° C. The third tube was then washed three times with phosphate-buffered saline (PBS) and centrifuged at 1300 rpm for three minutes, and the supernatant was removed and discarded. Serial dilutions of NaCl were made to obtain a suspension of GBS diluted to a concentration of 1×10^4 CFU/mL. The GBS were streaked onto Todd Hewitt agar plates.
as §1, with “therebetween” for “there between”
as §2

[3] = 0.05 mg/mL porphyrin + pulsed 450 nm light, 7.56 J/cm^2, 3 mW/cm^2, 33% DF, three irradiations
[4] = 0.2 mg/mL (incubated) + pulsed 450 nm light 7.56 J/cm^2, three irradiations
[5] = 0.2 mg/mL (incubated), without any irradiation

Compound: C=CC1=C(C)c2cc3[nH]c(cc4nc(cc5[nH]c(cc1n2)c(C)c5CCC(=O)O)C(CCC(=O)O)=C4C)c(C)c3C=C [PPIX, protoporphyrin IX]
- percent GBS survival compared to the control ([1]; 0.02 mg/mL porphyrin + pulsed 450 nm light, 7.56 J/cm^2, 3 mW/cm^2, 33% DF, three irradiations): 0%
- percent GBS survival compared to the control [1, 3]: 3% and 0%
- percent GBS survival compared to the control ([2]; 0.02 mg/mL (incubated and washed) + pulsed 450 nm light 7.56 J/cm^2, three irradiations): approximately 18%
- percent GBS survival compared to the control ([2]; 0.02 mg/mL (incubated and washed), no irradiation): approximately 92%
- percent GBS survival compared to the control ([2]; 0.02 mg/mL (incubated) + pulsed 450 nm light 7.56 J/cm^2, three irradiations): approximately 68%
- percent GBS survival compared to the control ([2]; 0.02 mg/mL (incubated), without any irradiation): approximately 92%
- percent GBS survival compared to the control ([2]; 0.08 mg/mL (incubated and washed) + pulsed 450 nm light 7.56 J/cm^2, three irradiations): approximately 40%
- percent GBS survival compared to the control ([2]; 0.08 mg/mL (incubated and washed), no irradiation): approximately 76%
- percent GBS survival compared to the control ([2]; 0.08 mg/mL (incubated) + pulsed 450 nm light 7.56 J/cm^2, three irradiations): approximately 52%
- percent GBS survival compared to the control ([2]; 0.08 mg/mL (incubated), without any irradiation): approximately 84%
- percent GBS survival compared to the control ([2]; 0.2 mg/mL (incubated and washed) + pulsed 450 nm light 7.56 J/cm^2, three irradiations): approximately 10%
- percent GBS survival compared to the control ([2]; 0.2 mg/mL (incubated and washed), no irradiation): approximately 78%
- percent GBS survival compared to the control [2, 4]: approximately 50%
- percent GBS survival compared to the control [2, 5]: approximately 80%

Compound: coproporphyrin III [CP III]
- percent GBS survival compared to the control ([1]; 0.02 mg/mL porphyrin, without any irradiation): approximately 74%
- percent GBS survival compared to the control [1, 3]: 0%
- percent GBS survival compared to the control ([1]; 0.05 mg/mL porphyrin, without any irradiation): approximately 84%
- percent GBS survival compared to the control ([2]; 0.05 mg/mL (incubated and washed) + pulsed 450 nm light 7.56 J/cm^2, three irradiations): 0%
- percent GBS survival compared to the control ([2]; 0.05 mg/mL (incubated and washed), no irradiation): approximately 72%
- percent GBS survival compared to the control ([2]; 0.05 mg/mL (incubated) + pulsed 450 nm light 7.56 J/cm^2, three irradiations): 0%
- percent GBS survival compared to the control ([2]; 0.05 mg/mL (incubated), without any irradiation): approximately 90%
- percent GBS survival compared to the control [2, 4]: 0%
- percent GBS survival compared to the control [2, 5]: approximately 82%
